Measured values taken from patent US10017504B2, “Piperidine isoxazole and isothiazole orexin receptor antagonists” (MERCK SHARP & DOHME CORP., priority 2014, dated 2018).

Biological target: human orexin-2 receptor (Homo sapiens (Human), UniProt O43614)
Test: FLIPR Ca2+ Flux Assay, orexin-2 receptor
Assay type: cell-based
Settings: CHO cells expressing the human orexin-2 receptor; agonist 70 pM Ala-6,12 human orexin-A; read-out: hOX2 FLIPR IC50
Procedure: In a typical experiment the OX1 and OX2 receptor antagonistic activity of the compounds of the present invention was determined in accordance with the following experimental method. For intracellular calcium measurements, Chinese hamster ovary (CHO) cells expressing the rat orexin-1 receptor or the human orexin-2 receptor, are grown in Iscove's modified DMEM containing 2 mM L-glutamine, […], 1% hypoxanthine-thymidine supplement, 100 U/ml penicillin, 100 μg/ml streptomycin and 10% heat-inactivated fetal calf serum (FCS). The cells are seeded at 20,000 cells/well into Becton-Dickinson black 384-well clear bottom sterile plates coated with poly-D-lysine. All reagents are from GIBCO-Invitrogen Corp. The seeded plates are incubated overnight at 37° C. and 5% CO2. Ala-6,12 human orexin-A as the agonist is prepared as a 1 mM stock solution in 1% bovine serum albumin (BSA) and diluted in assay buffer (HBSS containing 20 mM HEPES, 0.1% BSA and 2.5 mM probenecid, pH7.4) for use in the assay at a final concentration of 70 pM. Test compounds are prepared as 10 mM stock solution in DMSO, then diluted in 384-well plates, first in DMSO, then assay buffer. On the day of the assay, cells are washed 3 times with 100 μl assay buffer and then incubated for 60 min (37° C., 5% CO2) in 60 μl assay buffer containing 1 μM Fluo-4AM ester, 0.02% pluronic acid, and 1% BSA. The dye loading solution is then aspirated and cells are washed 3 times with 100 μl assay buffer. 30 μl of that same buffer is left in each well. Within the Fluorescent Imaging Plate Reader (FLIPR, Molecular Devices), test compounds are added to the plate in a volume of 25 μl, incubated for 5 min and finally 25 μl of agonist is added. Fluorescence is measured for each well at 1 second intervals for 5 minutes and the height of each fluorescence peak is compared to the height of the fluorescence peak induced by 70 pM Ala-6,12 orexin-A with buffer in place of antagonist. […] The intrinsic orexin receptor antagonist activity of a compound which may be used in the present invention may be determined by these assays.

Sequence of human orexin-2 receptor (O43614 whole entry): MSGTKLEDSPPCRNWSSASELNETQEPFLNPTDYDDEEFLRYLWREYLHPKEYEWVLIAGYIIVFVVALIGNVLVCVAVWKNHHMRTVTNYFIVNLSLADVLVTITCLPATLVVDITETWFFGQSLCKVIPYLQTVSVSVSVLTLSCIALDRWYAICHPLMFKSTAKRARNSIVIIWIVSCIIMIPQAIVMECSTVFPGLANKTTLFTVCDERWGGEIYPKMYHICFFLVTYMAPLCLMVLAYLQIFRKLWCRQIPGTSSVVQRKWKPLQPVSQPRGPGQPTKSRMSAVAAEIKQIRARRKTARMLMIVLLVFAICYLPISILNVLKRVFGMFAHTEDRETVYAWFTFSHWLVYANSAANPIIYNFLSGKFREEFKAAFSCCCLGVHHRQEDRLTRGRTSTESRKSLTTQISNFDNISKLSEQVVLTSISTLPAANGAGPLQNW

| SMILES | IC50 [nM] |
| --- | --- |
| C[C@@H]1CC[C@@H](c2cc(C(C)(C)O)no2)CN1C(=O)c1ccccc1OCC(F)F [Example 35, 2-{5-[(3R,6R)-1-{[2-(2,2-Difluoroethoxy)phenyl]carbonyl}-6-methylpiperidin-3-yl]isoxazol-3-yl}propan-2-ol] | 140 |
| C[C@@H]1CC[C@@H](c2cc(C(C)(C)O)sn2)CN1C(=O)c1ccccc1-n1nccn1 [Example 58, 2-{3-[(3R,6R)-6-Methyl-1-{[2-(2H-1,2,3-triazol-2-yl)phenyl]carbonyl}piperidin-3-yl]isothiazol-5-yl}propan-2-ol] | 13.9 |
| C[C@@H]1CC[C@@H](c2cc(C(C)(C)O)no2)CN1C(=O)c1nccnc1-n1cccn1 [Example 25, 2-{5-[(3R,6R)-6-methyl-1-{[3-(1H-pyrazol-1-yl)pyrazin-2-yl]carbonyl}piperidin-3-yl]isoxazol-3-yl}propan-2-ol] | 799 |
| CC[C@@](C)(O)c1cc([C@@H]2CC[C@@H](C)N(C(=O)c3ccccc3-n3nccn3)C2)no1 [Example 11, (2-(2H-1,2,3-Triazol-2-yl)phenyl)((2R,5R)-5-(5-((R)-2-hydroxybutan-2-yl)isoxazol-3-yl)-2-methylpiperidin-1-yl)methanone] | 41.4 |
| CCC(C)(O)c1cc([C@@H]2CC[C@@H](C)N(C(=O)c3ccccc3-n3nccn3)C2)on1 (stereo partly drawn) [Example 55, 2-{5-[(3R,6R)-6-Methyl-1-{[2-(2H-1,2,3-triazol-2-yl)phenyl]carbonyl}piperidin-3-yl]isoxazol-3-yl}butan-2-ol] | 39.8 |
| C[C@@H]1CC[C@@H](c2cc(C(C)(O)C3CC3)no2)CN1C(=O)c1ccccc1-n1nccn1 (single isomer, unassigned) [Example 52] | 47.3 |
| C[C@@H]1CC[C@@H](c2cc(C(C)(C)O)no2)CN1C(=O)c1cc(Cl)ccc1-n1nccn1 [Example 27, 2-{5-[(3R,6R)-1-{[5-Chloro-2-(2H-1,2,3-triazol-2-yl)phenyl]carbonyl}-6-methylpiperidin-3-yl]isoxazol-3-yl}propan-2-ol] | 604 |
| CC[C@](C)(O)c1cc([C@@H]2CC[C@@H](C)N(C(=O)c3ccccc3-n3nccn3)C2)no1 [Example 12, (2-(2H-1,2,3-triazol-2-yl)phenyl)((2R,5R)-5-(5-((S)-2-hydroxybutan-2-yl)isoxazol-3-yl)-2-methylpiperidin-1-yl)methanone] | 15 |
| COCc1ccccc1C(=O)N1C[C@H](c2cc(C(C)(C)O)no2)CC[C@H]1C [Example 21, 2-{5-[(3R,6R)-1-{[2-(Methoxymethyl)phenyl]carbonyl}-6-methylpiperidin-3-yl]isoxazol-3-yl}propan-2-ol] | 1120 |
